Test results taken from PubChem BioAssay (NCI).
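48-hour exposure; five concentrations; linearly interpolated endpoints. The concentration for 50% growth inhibition is given as GI50. TGI marks complete inhibition of growth.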

Experiments:
Assay in all cases: NCI-60 cell line screen, 48 h
HOP-62 NSCLC = test system: HOP-62 NSCLC
IGROV1 ovarian = test system: IGROV1 ovarian
M14 melanoma = test system: M14 melanoma
MOLT-4 leukemia = test system: MOLT-4 leukemia
SF-268 CNS = test system: SF-268 CNS
SK-MEL-28 melanoma = test system: SK-MEL-28 melanoma
SK-OV-3 ovarian = test system: SK-OV-3 ovarian
SN12C renal = test system: SN12C renal
U251 CNS = test system: U251 CNS
UACC-62 melanoma = test system: UACC-62 melanoma

SMILES | GI50 (HOP-62 NSCLC) | TGI (HOP-62 NSCLC) | GI50 (IGROV1 ovarian) | TGI (IGROV1 ovarian) | GI50 (M14 melanoma) | TGI (M14 melanoma) | GI50 (MOLT-4 leukemia) | TGI (MOLT-4 leukemia) | GI50 (SF-268 CNS) | TGI (SF-268 CNS) | GI50 (SK-MEL-28 melanoma) | TGI (SK-MEL-28 melanoma) | GI50 (SK-OV-3 ovarian) | TGI (SK-OV-3 ovarian) | GI50 (SN12C renal) | TGI (SN12C renal) | GI50 (U251 CNS) | TGI (U251 CNS) | GI50 (UACC-62 melanoma) | TGI (UACC-62 melanoma)
O=C(Nc1nc2ccc(C(F)(F)F)cc2s1)c1cc(Cl)ccc1O | 2.03 µM | 7.09 µM | 0.621 µM | > 100 µM | 0.935 µM | 23.9 µM | 0.684 µM | 13.4 µM | 0.497 µM | > 100 µM | 0.425 µM | 18 µM | 0.497 µM | 4.77 µM | 0.353 µM | > 100 µM | 1.44 µM | 26.9 µM | 0.337 µM | 3.52 µM
CCCN=C(N)NC#N | – | > 100 µM | – | > 100 µM | – | > 100 µM | – | > 100 µM | – | > 100 µM | – | > 100 µM | – | > 100 µM | – | > 100 µM | – | > 100 µM | – | > 100 µM
N#Cc1c(NN)n(C2OC(CO)C(O)C2O)c2ncnc(N)c12 (configuration not stated) | 0.247 µM | 2.02 µM | 0.057 µM | 0.348 µM | 0.0532 µM | 0.303 µM | 0.095 µM | 0.402 µM | 0.171 µM | > 45.3 µM | 0.0312 µM | 0.216 µM | 0.198 µM | 0.722 µM | 0.151 µM | > 47.5 µM | 0.0919 µM | > 100 µM | 0.126 µM | 0.308 µM
O=C(CNc1ccc(Cl)cc1)Nc1ccc(-c2nc3ccccc3s2)cc1 | 8.62 µM | 23.8 µM | 5.79 µM | 12.9 µM | 2.1 µM | 5.15 µM | 0.811 µM | > 26.6 µM | 3.38 µM | 10.8 µM | 5.67 µM | 11.6 µM | 12 µM | > 78.6 µM | 3.07 µM | 10.5 µM | 5.24 µM | 10.8 µM | 2.63 µM | 8.3 µM
COc1ccc2c3c([nH]c2c1[N+](=O)[O-])C(C)=NCC3 | – | > 100 µM | – | 77.2 µM | – | > 100 µM | – | > 100 µM | – | 64.7 µM | – | > 100 µM | – | – | – | > 100 µM | – | > 100 µM | – | 62.3 µM
CC1=NNC(=O)C2CCC(=O)N12 (configuration not stated) | – | > 100 µM | – | > 100 µM | – | > 100 µM | – | > 100 µM | – | > 100 µM | – | > 100 µM | – | > 100 µM | – | > 100 µM | – | > 100 µM | – | –
O=C(/C=C/c1ccccc1O)c1ccccc1O | – | > 100 µM | – | > 100 µM | – | – | – | > 100 µM | – | > 100 µM | – | > 100 µM | – | > 100 µM | – | > 100 µM | – | > 100 µM | – | > 100 µM
CN(C)/C=N/c1nc2c(ncn2C2OC(CO)C(O)C2O)c(=O)[nH]1 (configuration not stated) | – | > 100 µM | – | > 100 µM | – | > 100 µM | – | > 100 µM | – | > 100 µM | – | – | – | > 100 µM | – | > 100 µM | – | > 100 µM | – | > 100 µM
C=C1CC[C@@H]2[C@](C)(COC(C)=O)[C@H](OC(C)=O)CC[C@@]2(C)[C@@H]1CC(Sc1ccccc1)C1=CCOC1=O (some centres not stated) | 2.89 µM | 5.52 µM | – | – | 1.47 µM | 3.69 µM | 1.48 µM | 6.15 µM | 1.71 µM | 3.55 µM | 1.62 µM | 3.29 µM | 4.44 µM | 16.8 µM | 2.1 µM | 7.07 µM | 1.56 µM | 2.96 µM | 1.3 µM | 3.24 µM
Cn1c2c(c3ccccc31)C1CCCCCCC1C1C(=O)OC(=O)C21 (configuration not stated) | – | – | – | 73.8 µM | – | > 100 µM | – | 65.8 µM | – | > 100 µM | – | > 100 µM | – | > 100 µM | – | > 100 µM | – | > 100 µM | – | > 100 µM
COc1cc(C(Cc2ccccc2)NC(C)=O)oc(=O)c1 (configuration not stated) | – | > 100 µM | – | > 100 µM | – | > 100 µM | – | – | – | > 100 µM | – | > 100 µM | – | > 100 µM | – | > 100 µM | – | > 100 µM | – | > 100 µM
Cn1c2ccccc2c2c3c(c4c5cc(Br)ccc5n(C)c4c21)C(=O)N(O)C3=O | – | – | 0.284 µM | > 100 µM | – | – | 0.0474 µM | 0.275 µM | – | – | 0.584 µM | > 100 µM | – | – | – | – | 0.0499 µM | 0.489 µM | 0.308 µM | > 100 µM
Cc1ccc(S(=O)(=O)N(CC(=O)O)c2ccccc2)cc1 | – | – | – | > 100 µM | – | > 100 µM | – | > 100 µM | – | > 100 µM | – | > 100 µM | – | > 100 µM | – | > 100 µM | – | > 100 µM | – | > 100 µM
Cc1cc(CC(O)c2ccc(Cl)c(Cl)c2)nc(=O)[nH]1 (configuration not stated) | – | 86.5 µM | – | – | – | > 100 µM | – | – | – | > 100 µM | – | > 100 µM | – | > 100 µM | – | > 100 µM | – | > 100 µM | – | > 100 µM
Cc1cc(N)c(C)c2c1[nH]c1ccc(O)cc12 | – | > 100 µM | – | – | – | > 100 µM | – | > 100 µM | – | > 100 µM | – | > 100 µM | – | – | – | > 100 µM | – | > 100 µM | – | –
CCC[CH2][Sn]1([CH2]CCC)[O]N=C(c2ccccc2)C(c2ccccc2)[O]1 (configuration not stated) | 3.24 µM | 7.93 µM | 1.89 µM | 3.9 µM | 1.63 µM | 3.09 µM | 1.81 µM | 6.52 µM | – | – | 1.36 µM | 2.64 µM | 3.84 µM | 12.7 µM | 1.77 µM | 3.18 µM | 1.54 µM | 2.9 µM | 1.42 µM | 2.81 µM
C=C1C(=O)O[C@@H]2C[C@@H]1CC/C(C)=C/CC/C(C)=C/CC[C@@]2(C)O | – | – | 0.766 µM | 20.2 µM | 2.04 µM | 8.37 µM | 3.72 µM | 18 µM | 16.3 µM | 35.6 µM | 22.2 µM | 49.8 µM | 46.6 µM | > 100 µM | – | – | 18.4 µM | 43.6 µM | 14 µM | 29.3 µM
CN(C)N=Nc1ccc(NC=O)cc1 | – | > 100 µM | – | > 100 µM | – | > 100 µM | – | > 100 µM | – | – | – | > 100 µM | – | > 100 µM | – | > 100 µM | – | > 100 µM | – | > 100 µM
COc1cc(C#CC(=O)OC/C=C/c2ccc3c(c2)OCO3)cc(OC)c1OC | – | 86 µM | – | – | – | 79.8 µM | – | – | – | 59.5 µM | – | > 100 µM | – | 68.6 µM | – | > 100 µM | – | > 100 µM | – | 37.2 µM
